# Literature values as cited in PubChem BioAssay AID1259409 (Chemical Carcinogenesis Research Information System (CCRIS), 2018).
# System: rodent chemically induced tumor inhibition, incidence and multiplicity
# Assay: CCRIS tumor inhibitor studies
# Details: Dose [Inhibitor]: 0
smiles,measurement,setting,value
CC(C)=CCC/C(C)=C/C=C/C(C)=C/C=C/C(C)=C/C=C/C=C(C)/C=C/C=C(C)/C=C/C=C(\C)CCC=C(C)C,"tumour outcome (control, treated, inhibition, significance)","Carcinogen: 7,12-DIMETHYLBENZ[A]ANTHRACENE, 57-97-6, 2.5 MG/KG ON DAYS ALTERNATE TO CARCINOGEN APPLICATION FOR STUDY DURATION (STUDY DURATION: 14 WK), Route [Inhibitor]: GAVAGE, Species: HAMSTER, Strain/Sex: SYRIAN/MALE, Target Tissue: Type of Lesion: BUCCAL POUCH: SQUAMOUS CELL CARCINOMA, Dose [Carcinogen]: 0.5% IN LIQUID PARAFFIN ON RIGHT BUCCAL POUCH 3X/WK FOR 14 WK, Promoter: NONE USED","6/6 (100%), 0/6 (0%), 100%, not calculated"
same,"tumour outcome (control, treated, inhibition, significance)","Carcinogen: DIETHYLNITROSAMINE: 55-18-5, N-METHYL-N-NITROSOUREA, 684-93-5, 1,2-DIMETHYLHYDRAZINE, 540-73-8, Carcinogen: DIETHYLNITROSAMINE: 55-18-5, N-METHYL-N-NITROSOUREA, 684-93-5, 1,2-DIMETHYLHYDRAZINE, 540-73-8, 25 PPM IN DIET FOR 21 WK BEGINNING 2 WK POST CARCINOGEN TREATMENT (STUDY DURATION: 213 D), Route [Inhibitor]: ORAL, Species: MOUSE, Strain/Sex: B6C3F1/FEMALE, Target Tissue: Type of Lesion: LUNG: ADENOMA, Dose [Carcinogen]: 10 MG/KG BW DEN TWICE ON DAYS 1 AND 21, 120 PPM MNU IN DRINKING WATER DURING WKS 4-9, 20 MG/KG BW DMH 2/WK DURING WKS 4-, Dose [Carcinogen]: 10 MG/KG BW DEN TWICE ON DAYS 1 AND 21, 120 PPM MNU IN DRINKING WATER DURING WKS 4-9, 20 MG/KG BW DMH 2/WK DURING WKS 4-","6/16 (38%), 3/16 (19%), 50%, not significant"
same,outcome,"Carcinogen: DIETHYLNITROSAMINE: 55-18-5, N-METHYL-N-NITROSOUREA, 684-93-5, 1,2-DIMETHYLHYDRAZINE, 540-73-8, Carcinogen: DIETHYLNITROSAMINE: 55-18-5, N-METHYL-N-NITROSOUREA, 684-93-5, 1,2-DIMETHYLHYDRAZINE, 540-73-8, 25 PPM IN DIET FOR 21 WK BEGINNING 2 WK POST CARCINOGEN TREATMENT (STUDY DURATION: 213 D), Route [Inhibitor]: ORAL, Species: MOUSE, Strain/Sex: B6C3F1/FEMALE, Target Tissue: Type of Lesion: LUNG: CARCINOMA, Dose [Carcinogen]: 10 MG/KG BW DEN TWICE ON DAYS 1 AND 21, 120 PPM MNU IN DRINKING WATER DURING WKS 4-9, 20 MG/KG BW DMH 2/WK DURING WKS 4-, Dose [Carcinogen]: 10 MG/KG BW DEN TWICE ON DAYS 1 AND 21, 120 PPM MNU IN DRINKING WATER DURING WKS 4-9, 20 MG/KG BW DMH 2/WK DURING WKS 4-","0/16 (0%), 0/16 (0%), 0%, not significant"
same,"tumour outcome (control, treated, inhibition, significance)","Carcinogen: DIETHYLNITROSAMINE: 55-18-5, N-METHYL-N-NITROSOUREA, 684-93-5, 1,2-DIMETHYLHYDRAZINE, 540-73-8, Carcinogen: DIETHYLNITROSAMINE: 55-18-5, N-METHYL-N-NITROSOUREA, 684-93-5, 1,2-DIMETHYLHYDRAZINE, 540-73-8, 25 PPM IN DIET FOR 21 WK BEGINNING 2 WK POST CARCINOGEN TREATMENT (STUDY DURATION: 213 D), Route [Inhibitor]: ORAL, Species: MOUSE, Strain/Sex: B6C3F1/MALE, Target Tissue: Type of Lesion: LUNG: ADENOMA, Dose [Carcinogen]: 10 MG/KG BW DEN TWICE ON DAYS 1 AND 21, 120 PPM MNU IN DRINKING WATER DURING WKS 4-9, 20 MG/KG BW DMH 2/WK DURING WKS 4-, Dose [Carcinogen]: 10 MG/KG BW DEN TWICE ON DAYS 1 AND 21, 120 PPM MNU IN DRINKING WATER DURING WKS 4-9, 20 MG/KG BW DMH 2/WK DURING WKS 4-","11/16 (69%), 11/15 (69%), 0%, not significant"
same,"tumour outcome (control, treated, inhibition, significance)","Carcinogen: DIETHYLNITROSAMINE: 55-18-5, N-METHYL-N-NITROSOUREA, 684-93-5, 1,2-DIMETHYLHYDRAZINE, 540-73-8, Carcinogen: DIETHYLNITROSAMINE: 55-18-5, N-METHYL-N-NITROSOUREA, 684-93-5, 1,2-DIMETHYLHYDRAZINE, 540-73-8, 25 PPM IN DIET FOR 21 WK BEGINNING 2 WK POST CARCINOGEN TREATMENT (STUDY DURATION: 213 D), Route [Inhibitor]: ORAL, Species: MOUSE, Strain/Sex: B6C3F1/MALE, Target Tissue: Type of Lesion: LUNG: CARCINOMA, Dose [Carcinogen]: 10 MG/KG BW DEN TWICE ON DAYS 1 AND 21, 120 PPM MNU IN DRINKING WATER DURING WKS 4-9, 20 MG/KG BW DMH 2/WK DURING WKS 4-, Dose [Carcinogen]: 10 MG/KG BW DEN TWICE ON DAYS 1 AND 21, 120 PPM MNU IN DRINKING WATER DURING WKS 4-9, 20 MG/KG BW DMH 2/WK DURING WKS 4-","1/16 (6%), 2/16 (12%), -98%, not significant"
same,"tumour outcome (control, treated, inhibition, significance)","Carcinogen: DIETHYLNITROSAMINE: 55-18-5, N-METHYL-N-NITROSOUREA, 684-93-5, 1,2-DIMETHYLHYDRAZINE, 540-73-8, Carcinogen: DIETHYLNITROSAMINE: 55-18-5, N-METHYL-N-NITROSOUREA, 684-93-5, 1,2-DIMETHYLHYDRAZINE, 540-73-8, 50 PPM IN DIET FOR 21 WK BEGINNING 2 WK POST CARCINOGEN TREATMENT (STUDY DURATION: 213 D), Route [Inhibitor]: ORAL, Species: MOUSE, Strain/Sex: B6C3F1/FEMALE, Target Tissue: Type of Lesion: LUNG: ADENOMA, Dose [Carcinogen]: 10 MG/KG BW DEN TWICE ON DAYS 1 AND 21, 120 PPM MNU IN DRINKING WATER DURING WKS 4-9, 20 MG/KG BW DMH 2/WK DURING WKS 4-, Dose [Carcinogen]: 10 MG/KG BW DEN TWICE ON DAYS 1 AND 21, 120 PPM MNU IN DRINKING WATER DURING WKS 4-9, 20 MG/KG BW DMH 2/WK DURING WKS 4-","6/16 (37%), 8/15 (53%), -42%, not significant"
same,outcome,"Carcinogen: DIETHYLNITROSAMINE: 55-18-5, N-METHYL-N-NITROSOUREA, 684-93-5, 1,2-DIMETHYLHYDRAZINE, 540-73-8, Carcinogen: DIETHYLNITROSAMINE: 55-18-5, N-METHYL-N-NITROSOUREA, 684-93-5, 1,2-DIMETHYLHYDRAZINE, 540-73-8, 50 PPM IN DIET FOR 21 WK BEGINNING 2 WK POST CARCINOGEN TREATMENT (STUDY DURATION: 213 D), Route [Inhibitor]: ORAL, Species: MOUSE, Strain/Sex: B6C3F1/FEMALE, Target Tissue: Type of Lesion: LUNG: CARCINOMA, Dose [Carcinogen]: 10 MG/KG BW DEN TWICE ON DAYS 1 AND 21, 120 PPM MNU IN DRINKING WATER DURING WKS 4-9, 20 MG/KG BW DMH 2/WK DURING WKS 4-, Dose [Carcinogen]: 10 MG/KG BW DEN TWICE ON DAYS 1 AND 21, 120 PPM MNU IN DRINKING WATER DURING WKS 4-9, 20 MG/KG BW DMH 2/WK DURING WKS 4-","0/16 (0%), 0/15 (0%), 0%, not significant"
same,"tumour outcome (control, treated, inhibition, significance)","Carcinogen: DIETHYLNITROSAMINE: 55-18-5, N-METHYL-N-NITROSOUREA, 684-93-5, 1,2-DIMETHYLHYDRAZINE, 540-73-8, Carcinogen: DIETHYLNITROSAMINE: 55-18-5, N-METHYL-N-NITROSOUREA, 684-93-5, 1,2-DIMETHYLHYDRAZINE, 540-73-8, 50 PPM IN DIET FOR 21 WK BEGINNING 2 WK POST CARCINOGEN TREATMENT (STUDY DURATION: 213 D), Route [Inhibitor]: ORAL, Species: MOUSE, Strain/Sex: B6C3F1/MALE, Target Tissue: Type of Lesion: LUNG: ADENOMA, Dose [Carcinogen]: 10 MG/KG BW DEN TWICE ON DAYS 1 AND 21, 120 PPM MNU IN DRINKING WATER DURING WKS 4-9, 20 MG/KG BW DMH 2/WK DURING WKS 4-, Dose [Carcinogen]: 10 MG/KG BW DEN TWICE ON DAYS 1 AND 21, 120 PPM MNU IN DRINKING WATER DURING WKS 4-9, 20 MG/KG BW DMH 2/WK DURING WKS 4-","11/16 (69%), 3/16 (19%), 73%, not significant"
same,"tumour outcome (control, treated, inhibition, significance)","Carcinogen: DIETHYLNITROSAMINE: 55-18-5, N-METHYL-N-NITROSOUREA, 684-93-5, 1,2-DIMETHYLHYDRAZINE, 540-73-8, Carcinogen: DIETHYLNITROSAMINE: 55-18-5, N-METHYL-N-NITROSOUREA, 684-93-5, 1,2-DIMETHYLHYDRAZINE, 540-73-8, 50 PPM IN DIET FOR 21 WK BEGINNING 2 WK POST CARCINOGEN TREATMENT (STUDY DURATION: 213 D), Route [Inhibitor]: ORAL, Species: MOUSE, Strain/Sex: B6C3F1/MALE, Target Tissue: Type of Lesion: LUNG: CARCINOMA, Dose [Carcinogen]: 10 MG/KG BW DEN TWICE ON DAYS 1 AND 21, 120 PPM MNU IN DRINKING WATER DURING WKS 4-9, 20 MG/KG BW DMH 2/WK DURING WKS 4-, Dose [Carcinogen]: 10 MG/KG BW DEN TWICE ON DAYS 1 AND 21, 120 PPM MNU IN DRINKING WATER DURING WKS 4-9, 20 MG/KG BW DMH 2/WK DURING WKS 4-","1/16 (6%), 0/16 (0%), 100%, not significant"
same,"tumour outcome (control, treated, inhibition, significance)","Carcinogen: DIETHYLNITROSAMINE, 55-18-5, N-METHYL-N-NITROSOUREA, 684-93-5, 1,2-DIMETHYLHYDRAZINE, 306-37-6, Carcinogen: DIETHYLNITROSAMINE, 55-18-5, N-METHYL-N-NITROSOUREA, 684-93-5, 1,2-DIMETHYLHYDRAZINE, 306-37-6, 25 PPM IN DRINKING WATER FOR 21 WK BEGINNING 2 WK POST CARCINOGEN TREATMENT (STUDY DURATION: 32 WK), Route [Inhibitor]: ORAL, Species: MOUSE, Strain/Sex: B6C3F1/FEMALE, Target Tissue: Type of Lesion: LUNG: ADENOMA, Dose [Carcinogen]: 10 MG/KG BW DEN ON DAYS 11 AND 32 OF AGE, 120 PPM MNU IN DRINKING WATER FROM WKS 4 TO 9, 20 MG/KG BW DMH 2/WK FOR 5 WK, Promoter: NONE USED","6/16 (38%), 3/16 (19%), 50%, not significant"
